Data reported in the supplement of paper PMC11208160.

Test: recombinant UMI read abundance after kanamycin selection (control-corrected) (log10(CPM+1)); higher = more efficient recombination; extreme values may be limits of the assay; sequences stand for … in AGTGCAGAGAAAATCGGCCAGTTTTCTCTGCCTGCAGTCCGCATGCCGTGGGACCCCTTGGGTTCTAACCTGTTGCCTAGATTTATGCAGCGGACTGCCTTTCTCCCAAAGTGATAAACCGG…AGGTTGGTTTCACT; site = the 11-nt donor
Procedure: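 Pooled E. coli donor-specificity screen for the IS621 bridge recombinase. Each library member carries a reprogrammed 11-nt donor and a full-length LE bridge RNA expressed in cis from the natural promoter, with a paired donor-binding loop (8-nt LDG + 4-nt RDG) and a target-binding loop fixed to T5. It is co-electroporated with a T5 target plasmid; recombinase is induced with 0.07 mM IPTG and recombinants are selected on kanamycin. UMIs are counted as CPM, averaged over two biological replicates and corrected by the unselected control. Molecule = full bridge RNA written as DNA, built from the T5 scaffold: LDG = donor specificity nt 1-8, RDG = reverse complement of nt 8-11.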
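Also: IS621 bridge recombinase in Escherichia coli cells against a fixed T5 target plasmid.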

Sequence | recombinant UMI read abundance (log10)
ACACATTCATGGACCGGTTTTCCCGGTAATCCGTATTTGAC (site ACACATGCTGT) | 0
ACACATTCATGGACCGGTTTTCCCGGTAATCCGTATTTGAC (site ACACATTCTGT) | 2.74
ACACCAGCATGGACCGGTTTTCCCGGTAATCCGTATTTGAT (site ACACCAGCTAT) | 2.01
ACACCCACATGGACCGGTTTTCCCGGTAATCCGTATTTGAG (site ACACCCACTCT) | 1.37
ACACGAACATGGACCGGTTTTCCCGGTAATCCGTATTTGTC (site AAACGAACTGA) | 0
ACACGAACATGGACCGGTTTTCCCGGTAATCCGTATTTGTC (site ACAAGAACTGA) | 0
ACACGAACATGGACCGGTTTTCCCGGTAATCCGTATTTGTC (site ACACAAACTGA) | 1.4
ACACGAACATGGACCGGTTTTCCCGGTAATCCGTATTTGTC (site ACACCAACTGA) | 0
ACACGAACATGGACCGGTTTTCCCGGTAATCCGTATTTGTC (site ACACGAACTAA) | 1.83
ACACGAACATGGACCGGTTTTCCCGGTAATCCGTATTTGTC (site ACACGAACTCA) | 0.338
ACACGAACATGGACCGGTTTTCCCGGTAATCCGTATTTGTC (site ACACGAACTGA) | 2.77
ACACGAACATGGACCGGTTTTCCCGGTAATCCGTATTTGTC (site ACACGAACTGC) | 0
ACACGAACATGGACCGGTTTTCCCGGTAATCCGTATTTGTC (site ACACGAACTGG) | 1.74
ACACGAACATGGACCGGTTTTCCCGGTAATCCGTATTTGTC (site ACACGAACTGT) | 1.41
ACACGAACATGGACCGGTTTTCCCGGTAATCCGTATTTGTC (site ACACGAACTTA) | 1.96
ACACGAACATGGACCGGTTTTCCCGGTAATCCGTATTTGTC (site ACACGACCTGA) | 0
ACACGAACATGGACCGGTTTTCCCGGTAATCCGTATTTGTC (site ACACGAGCTGA) | 0
ACACGAACATGGACCGGTTTTCCCGGTAATCCGTATTTGTC (site ACACGATCTGA) | 1.55
ACACGAACATGGACCGGTTTTCCCGGTAATCCGTATTTGTC (site ACACGCACTGA) | 0
ACACGAACATGGACCGGTTTTCCCGGTAATCCGTATTTGTC (site ACACGGACTGA) | 1.61
ACACGAACATGGACCGGTTTTCCCGGTAATCCGTATTTGTC (site ACACGTACTGA) | 0
ACACGAACATGGACCGGTTTTCCCGGTAATCCGTATTTGTC (site ACACTAACTGA) | 0
ACACGAACATGGACCGGTTTTCCCGGTAATCCGTATTTGTC (site ACAGGAACTGA) | 0
ACACGAACATGGACCGGTTTTCCCGGTAATCCGTATTTGTC (site ACATGAACTGA) | 0

Sequence | recombinant UMI read abundance (log10)
ACACGAACATGGACCGGTTTTCCCGGTAATCCGTATTTGTC (site ACCCGAACTGA) | 0
ACACGAACATGGACCGGTTTTCCCGGTAATCCGTATTTGTC (site ACGCGAACTGA) | 0
ACACGAACATGGACCGGTTTTCCCGGTAATCCGTATTTGTC (site ACTCGAACTGA) | 0.747
ACACGAACATGGACCGGTTTTCCCGGTAATCCGTATTTGTC (site AGACGAACTGA) | 0
ACACGAACATGGACCGGTTTTCCCGGTAATCCGTATTTGTC (site ATACGAACTGA) | 0.0105
ACACGAACATGGACCGGTTTTCCCGGTAATCCGTATTTGTC (site CCACGAACTGA) | 0.924
ACACGAACATGGACCGGTTTTCCCGGTAATCCGTATTTGTC (site GCACGAACTGA) | 0
ACACGAACATGGACCGGTTTTCCCGGTAATCCGTATTTGTC (site TCACGAACTGA) | 0
ACACGGACATGGACCGGTTTTCCCGGTAATCCGTATTTGGC (site ACACGGACTGC) | 2.58
ACACGTACATGGACCGGTTTTCCCGGTAATCCGTATTTGTC (site ACACGAACTGA) | 0
ACACGTACATGGACCGGTTTTCCCGGTAATCCGTATTTGTC (site ACACGCACTGA) | 0.199
ACACGTACATGGACCGGTTTTCCCGGTAATCCGTATTTGTC (site ACACGGACTGA) | 0
ACACGTACATGGACCGGTTTTCCCGGTAATCCGTATTTGTC (site ACACGTACTGA) | 1.49
ACAGACACATGGACCGGTTTTCCCGGTAATCCGTATTTGTC (site ACAGACACTGA) | 2.7
ACAGACCCATGGACCGGTTTTCCCGGTAATCCGTATTTGCC (site ACAGACCCTGG) | 1.2
ACAGCATCATGGACCGGTTTTCCCGGTAATCCGTATTTGCG (site ACAGCATCTCG) | 2.33
ACAGCATCATGGACCGGTTTTCCCGGTAATCCGTATTTGCG (site ACAGTATCTTG) | 0
ACAGCTTCATGGACCGGTTTTCCCGGTAATCCGTATTTGCA (site ACAGCTTCTTG) | 2.59
ACAGCTTCATGGACCGGTTTTCCCGGTAATCCGTATTTGCA (site ACAGTATCTTG) | 2.16
ACAGTACCATGGACCGGTTTTCCCGGTAATCCGTATTTGAA (site ACAGTACCTTT) | 0.501
ACAGTACCATGGACCGGTTTTCCCGGTAATCCGTATTTGAA (site ACAGTATCTTG) | 0
ACAGTATCATGGACCGGTTTTCCCGGTAATCCGTATTTGCA (site AAAATATCTTG) | 1.79
ACAGTATCATGGACCGGTTTTCCCGGTAATCCGTATTTGCA (site AAAGAATCTTG) | 1.57
ACAGTATCATGGACCGGTTTTCCCGGTAATCCGTATTTGCA (site AAAGTAACTTG) | 0.587

Sequence | recombinant UMI read abundance (log10)
ACAGTATCATGGACCGGTTTTCCCGGTAATCCGTATTTGCA (site AAAGTATCTAG) | 0
ACAGTATCATGGACCGGTTTTCCCGGTAATCCGTATTTGCA (site AAAGTATCTTC) | 0.00296
ACAGTATCATGGACCGGTTTTCCCGGTAATCCGTATTTGCA (site AAAGTATCTTG) | 2.1
ACAGTATCATGGACCGGTTTTCCCGGTAATCCGTATTTGCA (site AAAGTCTCTTG) | 0.0144
ACAGTATCATGGACCGGTTTTCCCGGTAATCCGTATTTGCA (site AACGTATCTTG) | 2.46
ACAGTATCATGGACCGGTTTTCCCGGTAATCCGTATTTGCA (site ACAAAATCTTG) | 0.724
ACAGTATCATGGACCGGTTTTCCCGGTAATCCGTATTTGCA (site ACAATAACTTG) | 0
ACAGTATCATGGACCGGTTTTCCCGGTAATCCGTATTTGCA (site ACAATATCTAG) | 0.00607
ACAGTATCATGGACCGGTTTTCCCGGTAATCCGTATTTGCA (site ACAATATCTTC) | 0.00345
ACAGTATCATGGACCGGTTTTCCCGGTAATCCGTATTTGCA (site ACAATATCTTG) | 2.8
ACAGTATCATGGACCGGTTTTCCCGGTAATCCGTATTTGCA (site ACAATCTCTTG) | 0
ACAGTATCATGGACCGGTTTTCCCGGTAATCCGTATTTGCA (site ACACCATCTTG) | 0.786
ACAGTATCATGGACCGGTTTTCCCGGTAATCCGTATTTGCA (site ACACTAGCTTG) | 0.00526
ACAGTATCATGGACCGGTTTTCCCGGTAATCCGTATTTGCA (site ACACTATCTCG) | 0
ACAGTATCATGGACCGGTTTTCCCGGTAATCCGTATTTGCA (site ACACTATCTTA) | 0
ACAGTATCATGGACCGGTTTTCCCGGTAATCCGTATTTGCA (site ACACTATCTTG) | 1.61
ACAGTATCATGGACCGGTTTTCCCGGTAATCCGTATTTGCA (site ACACTTTCTTG) | 0
ACAGTATCATGGACCGGTTTTCCCGGTAATCCGTATTTGCA (site ACAGAAACTTG) | 0
ACAGTATCATGGACCGGTTTTCCCGGTAATCCGTATTTGCA (site ACAGAATCTAG) | 0
ACAGTATCATGGACCGGTTTTCCCGGTAATCCGTATTTGCA (site ACAGAATCTTC) | 0.287
ACAGTATCATGGACCGGTTTTCCCGGTAATCCGTATTTGCA (site ACAGAATCTTG) | 2.53
ACAGTATCATGGACCGGTTTTCCCGGTAATCCGTATTTGCA (site ACAGACTCTTG) | 1.68
ACAGTATCATGGACCGGTTTTCCCGGTAATCCGTATTTGCA (site ACAGCAGCTTG) | 0.00322
ACAGTATCATGGACCGGTTTTCCCGGTAATCCGTATTTGCA (site ACAGCATCTCG) | 0.00554
